Reference: paper PMC3750913 (BMC Microbiology, 2013)
Where two headings read alike, the source gives them in different places.

Columns and labels:
RSV [1] = test: Viral inactivation assay; format: cell-based, respiratory syncytial virus; conditions: for block of infection after pre-incubation of free virus with compound: RSV, CHLA 1 μM, PUG 2 μM, Figure 3
HCV [2] = test: Viral cell-to-cell spread assay; format: cell-based, hepatitis C virus; conditions: for effect on viral plaque size (cell-to-cell spread): HCV, Figure 7; for inhibition at 50 µM: Hepatitis C virus, Huh7.5, read-out: Window of antiviral effects: Cell-to-cell spread, inhibitory effect relative to DMSO control
Description: (A) Schematic of the experiment (left) with the virus concentration (PFU/well) and step-wise incubation periods (i, ii, iii) indicated for each virus in the table on the right. Virus infections were established (i) in the different cell types by direct inoculation (HCMV, DENV-2, MV, and RSV) or electroporation of viral RNA (HCV; *), and the cell monolayers were washed with citrate buffer or PBS before being covered with an overlay medium that prevents secondary infection. Initial virus plaques were allowed to form in the subsequent infections (ii), and then the test compounds were added to the overlay medium for an additional time of incubation (iii) before analysis of viral plaque size by immune fluorescence microscopy. Five random virus-positive plaques at the endpoint of the experiment were evaluated for each treatment group of viruses, and the data was plotted as “fold change of plaque area” against the size of the initial viral plaques formed prior to test compound treatment. Analyses for (B) HCMV, (C) HCV, (D) DENV-2, (E) MV, and (F) RSV are indicated in each additional panel. The S29 cell line and the FIP inhibitor were included as controls for HCV and MV, respectively. Results shown are means ± SEM from three independent experiments and representative micrographs of the evaluated plaques are provided in Additional file 1 Figure S1, Additional file 2 Figure S2, Additional file 3 Figure S3, Additional file 4 Figure S4 and Additional file 5 Figure S5. See text for details.
The examination of HCV spread is based on previously described protocol with some modifications. Huh-7.5 cells were electroporated with HCV Jc1FLAG2(p7-nsGluc2A) RNA (10 μg) as described above to establish random productive infections in the cell population, and then mixed with naïve cells at a ratio of 1:1 before seeding in 12-well plates. […] Medium was changed 24 h post-electroporation with an overlay medium containing the test drugs or control and 0.5% methylcellulose, and the plates were further incubated for 5 days before analysis of HCV-positive foci through immunostaining.
For immunofluorescence analysis of viral plaque size due to spread, the overlay media were removed and the wells were fixed with ice-cold methanol before blocking with 3% BSA. Samples were then treated at 37°C for 1 h with the respective mouse monoclonal primary antibodies diluted in PBS containing 3% BSA: anti-HCMV gB antibody (1:1,000), anti-NS5A 9E10 antibody for HCV (1:25,000), anti-flavivirus group antibody (1:400) for DENV-2, and anti-RSV fusion protein antibody (1:1,000). After incubation, the wells were washed with PBS three times before applying Alexa Fluor 488 goat anti-mouse IgG (H + L) antibody (Invitrogen), diluted at 1:1,000 (HCMV and RSV) or 1:400 (DENV-2 and HCV) in PBS containing 3% BSA. Following incubation at 37°C for 1 h, the samples were washed with PBS three times prior to visualization by fluorescence microscopy. The fluorescence expression of MV-EGFP could be readily detected without addition of antibodies. Photomicrographs were taken at × 100 magnification (Leica Microsystems; Wetzlar, Germany) and viral plaque sizes were then analyzed with MetaMorph software (Molecular Devices; Sunnyvale, CA, USA). In the case of HCV, cellular nuclei were stained with Hoechst dye (Sigma) prior to visualization and the number of cells in the virus-positive foci was determined. For all virus tested, a total of five random virus-positive plaques were evaluated for each treatment group per independent experiment. Comparison was made between viral plaques stained prior to drug addition and those at the endpoint of the experiment, and the data were plotted as “fold change of plaque area”.

HCV [3] = test: Viral penetration assay; format: cell-based, hepatitis C virus; conditions: for inhibition at 50 µM: Hepatitis C virus, Huh7.5, read-out: Window of antiviral effects: Penetration, inhibitory effect relative to DMSO control
HCMV [4] = test: Analysis of drug effects post viral entry; format: cell-based, human cytomegalovirus; conditions: for protection, treatment post-infection: HCMV, Figure 6
DENV-2 [5] = test: Viral attachment assay, method 2 (virus-specific cellular ELISA); format: cell-based, dengue virus type 2; conditions: DENV-2 MOI 5, ELISA, 4°C; highest inhibitory concentration of the compounds
MV = test: Viral penetration assay; format: cell-based, measles virus
HCV [6] = test: Analysis of drug effects post viral entry; format: cell-based, hepatitis C virus; conditions: for protection, treatment post-infection: HCV, Figure 6; for inhibition at 50 µM: Hepatitis C virus, Huh7.5, read-out: Window of antiviral effects: Post-infection, inhibitory effect relative to DMSO control
DENV-2 [7] = test: Viral inactivation assay; format: cell-based, dengue virus type 2; conditions: Dengue virus
HCV [8] = test: Viral attachment assay, method 1 (host cell infection); format: cell-based, hepatitis C virus; conditions: for inhibition of virus attachment: HCV, method 1, 4°C, Figure 4; for inhibition at 50 µM: Hepatitis C virus, Huh7.5, read-out: Window of antiviral effects: Attachment Method 1, inhibitory effect relative to DMSO control
ADV-5 = test: Dose-response antiviral assay (plaque assay); format: cell-based, human adenovirus type-5; conditions: Human adenovirus sp.; ADV-5 in A549 cells, co-treatment with viral inoculum; read-out: Antiviral effect EC50
RSV [9] = test: Viral attachment assay, method 2 (virus-specific cellular ELISA); format: cell-based, respiratory syncytial virus; conditions: RSV MOI 5, ELISA, 4°C; highest inhibitory concentration of the compounds
DENV-2 [10] = test: Viral cell-to-cell spread assay; format: cell-based, dengue virus type 2; conditions: for effect on viral plaque size (cell-to-cell spread): DENV-2, Figure 7; for inhibition at 25 µM: Dengue virus, DENV2, Vero, read-out: Window of antiviral effects: Cell-to-cell spread, inhibitory effect relative to DMSO control
XTT cytotoxicity assay = format: cell-based
Description: Cells (1 × 10^4 per well of 96-well plate) were treated with the test compounds for 3 days. Treatment effects on cell viability (%) and the 50% cytotoxic concentration (CC50) values of the test compounds were determined based on the XTT (2,3-bis[2-methoxy-4-nitro-5-sulfophenyl]-5-phenylamino)-carbonyl]-2H-tetrazolium hydroxide) assay as previously reported.

[11] = cited from earlier work
RSV [12] = test: Viral penetration assay; format: cell-based, respiratory syncytial virus
DENV-2 [13] = test: Dose-response antiviral assay (immunohistochemical staining plaque assay); format: cell-based, dengue virus type 2; conditions: DENV-2, Vero cells
HCMV [14] = test: Viral inactivation assay; format: cell-based, human cytomegalovirus
[15] = human respiratory syncytial virus, HEp-2, read-out: Window of antiviral effects: Free particle, inhibitory effect relative to DMSO control
[16] = Measles morbillivirus, read-out: Window of antiviral effects: Penetration, inhibitory effect relative to DMSO control
[17] = DENV2, Vero, read-out: Window of antiviral effects: Free particle, inhibitory effect relative to DMSO control
[18] = DENV2, read-out: inhibition of infection after pre-incubation of free virus with compound
[19] = human respiratory syncytial virus, HEp-2, read-out: Window of antiviral effects: Penetration, inhibitory effect relative to DMSO control
[20] = Human betaherpesvirus 5, read-out: inhibition of infection after pre-incubation of free virus with compound

Row | Structure (SMILES) | block of infection after pre-incubation of free virus with compound (RSV [1]) | effect on viral plaque size (cell-to-cell spread) (HCV [2]) | inhibition at 50 µM (HCV [2]) [%] | inhibition at 50 µM (HCV [3]) [%] | protection, treatment post-infection (HCMV [4]) | Window of antiviral effects: Attachment Method 2, inhibitory effect relative to DMSO control (DENV-2 [5]) | protection, treatment post-infection (HCV [6]) | inhibition at 50 µM (HCV [6]) [%] | inhibition at 25 µM (DENV-2 [7]; [17]) [%] | inhibition at 25 µM (DENV-2 [7]; [18]) [%] | inhibition of virus attachment (HCV [8]) | inhibition at 50 µM (HCV [8]) [%] | EC50 (ADV-5) [µM] | Window of antiviral effects: Attachment Method 2, inhibitory effect relative to DMSO control (RSV [9]) | effect on viral plaque size (cell-to-cell spread) (DENV-2 [10]) | inhibition at 25 µM (DENV-2 [10]) [%] | SI (selectivity index, CC50/EC50) (DENV-2 [13]) | further results
1 | O=C1O[C@H]2[C@@H]3OC(=O)c4cc(O)c(O)c(O)c4-c4c(O)c(O)c5oc(=O)c6c(c(O)c(O)c7oc(=O)c4c5c76)-c4c(cc(O)c(O)c4O)C(=O)OC[C@H]3OC(O)[C@@H]2OC(=O)c2cc(O)c(O)c(O)c2-c2c1cc(O)c(O)c2O (mixture of isomers) [PUG, punicalagin] | 60 – 80% | near initial size | > 75 | > 75 | 80 – 100% | +++ (+++ > 75%) | 80 – 100% | > 75 | > 75 | ~100 | 90 – 100% | > 75 | 197 ± 20.1 | +++ (+++ > 75%) | unaffected and expanded further | < 25 | 19.27 | inhibition at 2 µM (RSV [1]; [15]): > 75%; protection of the host cell from infection during virus penetration (HCV [3]; HCV, shift 4°C to 37°C, Figure 4): 50 – 90%; inhibition at 40 µM (HCMV [4]; Human betaherpesvirus 5, HEL, read-out: Window of antiviral effects: Post-infection, inhibitory effect relative to DMSO control): > 75%; protection of the host cell from infection during virus penetration (MV; MV, shift 4°C to 37°C, Figure 4): 50 – 90%; inhibition at 50 µM (MV; [16]): > 75%; CC50 at 3 days (XTT cytotoxicity assay; African green monkey, Vero cells, XTT assay, 3 days treatment, read-out: CC50): 151 ± 9.31 µM; CC50 at 3 days (XTT cytotoxicity assay; Chinese hamster, CHO-SLAM cells, XTT assay, 3 days treatment, read-out: CC50): 284 ± 11.5 µM; CC50 at 3 days (XTT cytotoxicity assay; human, A549 cells, 3 days treatment): 319 ± 4.99 µM; CC50 at 3 days (XTT cytotoxicity assay; human, HEL cells, 3 days treatment): 299 ± 9.14 µM; CC50 at 3 days (XTT cytotoxicity assay; human, HEp-2 cells, 3 days treatment): 265 ± 23.7 µM; CC50 at 3 days (XTT cytotoxicity assay; human, Huh-7.5 cells, 3 days treatment): 223 ± 3.41 µM; in vivo toxicity ([11]; In vivo toxicological and metabolic studies, ref [67], [68]): minimal toxicity; protection of the host cell from infection during virus penetration (RSV [12]; RSV, shift 4°C to 37°C, Figure 4): 50 – 90%; inhibition at 2 µM (RSV [12]; [19]): > 75%; inhibition at 40 µM (HCMV [14]; Human betaherpesvirus 5, HEL, read-out: Window of antiviral effects: Free particle, inhibitory effect relative to DMSO control): > 75%; inhibition at 40 µM (HCMV [14]; [20]): ~100%
2 | O=C(O)C[C@@H]1C(=O)O[C@H]2[C@@H]3OC(=O)c4cc(O)c(O)c(O)c4-c4c(cc(O)c(O)c4O)C(=O)OC[C@H]2O[C@@H](OC(=O)c2cc(O)c(O)c(O)c2)[C@@H]3OC(=O)c2cc(O)c(O)c3c2[C@H]1[C@H](O)C(=O)O3 [CHLA, chebulagic acid] | 60 – 80% | near initial size | > 75 | > 75 | 80 – 100% | +++ (+++ > 75%) | 80 – 100% | > 75 | > 75 | ~100 | 90 – 100% | > 75 | 198 ± 14.1 | +++ (+++ > 75%) | unaffected and expanded further | < 25 | 12.18 | inhibition at 1 µM (RSV [1]; [15]): > 75%; inhibition at 90 µM (MV; [16]): 50 to 75%; CC50 at 3 days (XTT cytotoxicity assay; African green monkey): 160 ± 7.46 µM; CC50 at 3 days (XTT cytotoxicity assay; Chinese hamster): 352 ± 4.54 µM; in vivo toxicity ([11]; in vivo): minimal toxicity; inhibition at 1 µM (RSV [12]; [19]): 50 to 75%; inhibition at 60 µM (HCMV [14]; [20]): ~100%
